{"source": "paper PMC6685790", "about": "(Nature structural & molecular biology, 2008)", "key": {"[1]": {"biological_target": "T1, GlyR α1^F108A (Homo sapiens, UniProt P23415, F136A)", "T1 sequence (P23415 29-457 F136A)": "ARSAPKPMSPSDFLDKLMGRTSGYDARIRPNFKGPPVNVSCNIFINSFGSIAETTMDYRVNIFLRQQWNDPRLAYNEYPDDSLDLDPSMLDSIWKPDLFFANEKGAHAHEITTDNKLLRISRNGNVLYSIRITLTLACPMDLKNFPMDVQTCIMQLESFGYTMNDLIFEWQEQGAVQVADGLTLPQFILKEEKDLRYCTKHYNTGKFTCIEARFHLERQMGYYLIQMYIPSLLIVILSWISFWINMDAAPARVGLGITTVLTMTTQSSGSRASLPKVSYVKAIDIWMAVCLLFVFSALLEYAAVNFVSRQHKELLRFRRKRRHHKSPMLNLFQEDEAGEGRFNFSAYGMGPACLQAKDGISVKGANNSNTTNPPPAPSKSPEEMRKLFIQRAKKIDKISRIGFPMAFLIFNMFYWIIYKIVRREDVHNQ", "format": "cell-based"}, "[2]": {"system": "Zn^2+-activated GlyRs (ZAGs)", "format": "cell-based, human"}, "[3]": {"biological_target": "T2, GlyR α1^L98A (Homo sapiens, UniProt P23415, L126A)", "T2 sequence (P23415 29-457 L126A)": "T1 sequence (P23415 29-457 F136A) with L98A, A108F", "test": "Whole-cell recording of substituted GlyR in HEK cells", "format": "cell-based"}, "[4]": {"biological_target": "T3, GlyR α1^F99A (Homo sapiens, UniProt P23415, F127A)", "T3 sequence (P23415 29-457 F127A)": "T1 sequence (P23415 29-457 F136A) with F99A, A108F", "test": "Whole-cell recording of substituted GlyR in HEK cells", "format": "cell-based"}, "[5]": {"biological_target": "T4, GlyR α1^L134A (Homo sapiens, UniProt P23415, L162A)", "T4 sequence (P23415 29-457 L162A)": "T1 sequence (P23415 29-457 F136A) with A108F, L134A", "test": "Whole-cell recording of substituted GlyR in HEK cells", "format": "cell-based"}, "[6]": {"conditions": "read-out: Zn^2+ complexation KD; ref [52]; cited from earlier work"}}, "note": "Positions count from the first letter of the chain named. Read-outs that look alike come from different tables or passages of the source.", "data": [{"molecule": "N#C[B-](c1ccccc1)(c1ccccc1)c1ccccc1", "note": "[CTB, cyanotriphenylborate]", "values": [{"measurement": "Effect on Zn^2+-activated currents", "setting": "[1]", "result": "abolished"}, {"measurement": "Standing current remaining after block of spontaneous leak", "setting": "[2]; CTB 20 μM, considered full abolition of receptor-mediated leak", "result": "less than 50 pA"}]}, {"molecule": "c1ccc(CN(CCN(Cc2ccccn2)Cc2ccccn2)Cc2ccccn2)nc1", "note": "[TPEN, N,N,N’,N’-tetrakis-(2-pyridylmethyl)-ethylenediamine]", "values": [{"measurement": "Effect on leak current (component caused by Zn^2+ contamination)", "setting": "[2]; TPEN 100 μM, α1^L98A, α1^F99A, α1^F108A, α1^L134A", "result": "reduced"}]}, {"molecule": "O=C1C[C@@H]2OCC=C3CN4CC[C@]56c7ccccc7N1[C@H]5[C@H]2[C@H]3C[C@H]46", "note": "[strychnine]", "values": [{"measurement": "Effect on Zn^2+ activation", "setting": "[3]", "result": "inhibited"}, {"measurement": "Attenuation of leak current", "setting": "[4]", "result": 100, "unit": "%"}, {"measurement": "Attenuation of leak current", "setting": "[5]", "result": "90 ± 4", "unit": "%"}, {"measurement": "Loss of potency inhibiting leak current compared to glycine-activated currents", "setting": "[2]", "result": 10, "unit": "fold"}]}, {"molecule": "O=C(O)CNC(CO)(CO)CO", "note": "[tricine]", "values": [{"measurement": "Kd", "setting": "[6]", "result": 10, "unit": "µM"}]}, {"molecule": "picrotoxin", "values": [{"measurement": "Effect on Zn^2+ activation", "setting": "[3]; picrotoxin, α1^L98A, Zn^2+ EC50-activated currents (Fig. 2f)", "result": "inhibited"}]}]}
